Results: patent publication US20230172204A1 (BASF SE, priority 2020, published 2023)

Columns and labels:
[1] = test system: Phakopsora pachyrhizi (F129L); test: Protective control of soybean rust on soybeans (PHAKPA P2); format: in vivo; details: for % PHAKPA (F129L) Disease level P2 at 4 ppm: protective P2, 4 ppm; for % PHAKPA (F129L) Disease level P2 at 4 ppm / % PHAKPA (F129L) Disease level P2 at 16 ppm: soybean rust F129L; for % PHAKPA (F129L) Disease level P2 at 16 ppm: protective P2, 16 ppm
[2] = test system: Phakopsora pachyrhizi (F129L); test: Protective control of soybean rust on soybeans (PHAKPA P6); format: in vivo; details: for % PHAKPA (F129L) Disease level P6 at 4 ppm: protective P6, 4 ppm; for % PHAKPA (F129L) Disease level P6 at 4 ppm / % PHAKPA (F129L) Disease level P6 at 16 ppm: soybean rust F129L; for % PHAKPA (F129L) Disease level P6 at 16 ppm: protective P6, 16 ppm
[3] = P2 protective, % diseased leaf area
[4] = P6 protective, % diseased leaf area

Row | Structure (SMILES) | % PHAKPA (F129L) Disease level P2 at 4 ppm [1] | % PHAKPA (F129L) Disease level P2 at 16 ppm [1] | % PHAKPA (F129L) Disease level P6 at 4 ppm [2] | % PHAKPA (F129L) Disease level P6 at 16 ppm [2] | PHAKPA (F129L) Disease level (%) P2 at 16 ppm [1, 3] | PHAKPA (F129L) Disease level (%) P6 at 16 ppm [2, 4] | PHAKPA (F129L) Disease level (%) P2 at 4 ppm ([1]; P2 protective, 4 ppm, % diseased leaf area) | PHAKPA (F129L) Disease level (%) P6 at 4 ppm ([2]; P6 protective, 4 ppm, % diseased leaf area)
1 | CO/N=C(/C(=O)OC)c1cccc(C)c1CO/N=C(\C)c1ccc(Cl)cc1C(F)(F)F [compound 304] | 53% | 28% | 100% | 37% | – | – | – | –
2 | CNC(=O)/C(=N/OC)c1cccc(C)c1CO/N=C(\C)c1ccc(Br)cc1 [compound 168] | 2% | 0% | 5% | 0% | – | – | – | –
3 | CO/N=C(/C(=O)OC)c1cccc(C)c1CO/N=C(\C)c1cccc(Br)c1F [compound 134] | 37% | 10% | 22% | 7% | – | – | – | –
4 | CO/N=C(/C(=O)OC)c1cccc(C)c1CO/N=C(\C)c1cccc(OC(F)F)c1 [compound 80] | 50% | 10% | 30% | 3% | – | – | – | –
5 | CNC(=O)/C(=N/OC)c1cccc(C)c1CO/N=C(\C)c1cccc(C#CC(F)(F)F)c1 [compound 57] | 25% | 8% | 43% | 15% | – | – | – | –
6 | CNC(=O)/C(=N/OC)c1cccc(C)c1CO/N=C(\C)c1ccc(F)cc1C(F)(F)F [compound 260] | 22% | 0% | 22% | 0% | – | – | – | –
7 | COC=C(C(=O)OC)c1cccc(C)c1CON=C(C)c1ccc(OC)cc1C(F)(F)F [compound 464] | 1% | 0% | 8% | 0% | – | – | – | –
8 | CNC(=O)/C(=N/OC)c1cccc(C)c1CO/N=C(\C)c1cc(C#N)cc(C(F)(F)F)c1 [compound 46] | 63% | 50% | 90% | 57% | – | – | – | –
9 | CNC(=O)/C(=N/OC)c1ccccc1CO/N=C(\C)c1cccc(C(F)F)c1 [reference compound] | – | – | – | – | 16% | 35% | – | –
10 | CNC(=O)/C(=N/OC)c1cccc(C)c1CO/N=C(\C)c1ccc(-c2cc(C)on2)cc1 [compound 64] | 87% | 73% | 80% | 43% | – | – | – | –
11 | CO/C=C(/C(=O)OC)c1cccc(C)c1CO/N=C(\C)c1cc(F)c(F)cc1CC(F)(F)F [compound 405] | 97% | 27% | 70% | 27% | – | – | – | –
12 | CO/N=C(/C(=O)OC)c1cccc(C)c1CO/N=C(\C)c1ccccc1F [Ex. 1, Methyl (2E)-2-[2-[[(E)-3-(2-fluorophenyl)ethylideneamino]oxymethyl]-3-methyl-phenyl]-2-methoxyimino-acetate] | 80% | 27% | 90% | 56% | 28% | 47% | – | –
13 | CO/N=C(/C(=O)OC)c1cccc(C)c1CO/N=C(\C)c1cc(F)cc(F)c1 [compound 87] | 8% | 0% | 7% | 0% | – | – | – | –
14 | CNC(=O)/C(=N/OC)c1cccc(C)c1CO/N=C(\C)c1ccc(C(F)(F)F)cc1 [compound 39] | 30% | 4% | 15% | 2% | – | – | – | –
15 | CO/N=C(/C(=O)OC)c1cccc(C)c1CO/N=C(\C)c1cc(Cl)cc(Cl)c1F [compound 110] | 20% | 3% | 30% | 1% | – | – | – | –
16 | CNC(=O)/C(=N/OC)c1cccc(C)c1CO/N=C(\C)c1cc(C2CC2)cc(C(F)(F)F)c1 [compound 150] | 56% | 8% | 70% | 29% | – | – | – | –
17 | CNC(=O)/C(=N/OC)c1cccc(C)c1CO/N=C(\C)c1ccccc1 [Ex. 31] | 0% | 0% | 4% | 0% | – | – | 0% | 12%
18 | CO/N=C(/C(=O)OC)c1cccc(C)c1CO/N=C(\C)c1ccccc1-c1ccccc1 [compound 121] | 100% | 98% | 98% | 92% | – | – | – | –
19 | CO/N=C(/C(=O)OC)c1ccccc1CO/N=C(\C)c1ccccc1C(F)(F)F [reference compound] | – | – | – | – | 87% | 90% | – | –
20 | CNC(=O)/C(=N/OC)c1cccc(C)c1CO/N=C(\CC(C)C)c1cccc(C(F)(F)F)c1 [compound 235] | 100% | 73% | 87% | 77% | – | – | – | –
21 | CNC(=O)/C(=N/OC)c1cccc(C)c1CO/N=C(\C)c1ccc(F)cc1CC(F)(F)F [compound 394] | 9% | 3% | 12% | 2% | – | – | – | –
22 | CNC(=O)/C(=N/OC)c1cccc(C)c1CO/N=C(\C)c1c(F)cccc1C(F)(F)F [compound 345] | 22% | 1% | 32% | 1% | – | – | – | –
23 | CO/N=C(/C(=O)OC)c1cccc(C)c1CO/N=C(\C)c1ccc(OC)cc1 [Ex. 216] | 77% | 13% | 80% | 29% | 20% | 15% | – | –
24 | COC=C(C(=O)OC)c1cccc(C)c1CON=C(C)c1ccc(Cl)c(F)c1OC(F)(F)F [compound 452] | 60% | 6% | 70% | 14% | – | – | – | –
25 | CO/N=C(/C(=O)OC)c1cccc(C)c1CO/N=C(\C)c1ccc(-c2ccccc2)cc1C(F)(F)F [compound 414] | 53% | 9% | 53% | 15% | – | – | – | –
26 | CO/N=C(/C(=O)OC)c1ccccc1CO/N=C(\C)c1ccc(Cl)cc1 [reference compound] | – | – | – | – | 63% | 43% | – | –
